This is an account of results in patent publication US20260183432A1, “IMAGING AGENTS FOR DETECTING CD206+ MACROPHAGES” (THE GENERAL HOSPITAL CORPORATION, priority 2022, published 2026).

The nature of series [1]: in vitro relaxivity (r1), Bruker Minispect. Type of series: physicochemical. The procedure:
Relaxation time (T1) of Mann2-DTPA-Gd/MannGdFish at concentrations of 0.1, 0.2, 0.3, 0.5, 0.6, 0.75, and 1 mM in PBS was measured on the Bruker Minispect (Bruker Analytics, MA) at 0.47 T (20 MHz) at 40° C. The slope value of the linear function of 1/T1 (s) to their corresponding concentrations is defined as the relaxivity (n=3 for each concentration).

The test system of series [2] is M1/M2 macrophages and HEK293 cells. Description: ICP-MS of gadolinium on cells incubated with agent. Type of series: cell-based. The procedure:
M1 and M2 differentiated macrophages were incubated with 1 mM of Mann2-DTPA-Gd for 1 h at 4° C. After washing with PBS (×3), cells were collected, digested with nitric acid (70%, 200 μL) overnight and subjected to ICP-MS to detect the amount of Gd.
M1 and M2 polarized differentiation. Raw 264.7 cells (Passage 8 from the cell core of center for Systems Biology at Massachusetts General Hospital, Boston) in 10 mL petri dishes were cultured with Dulbecco's modified eagle medium with high glucose (DMEM, Thermo Fisher Scientific, NY, USA) containing 10% of fetal bovine serum (FBS, Sigma-Aldrich, MO, USA) and 0.5% streptomycin/penicillin (Cellgro) until reaching 80% of confluency. Then differentiating media containing IFN-gamma (100 ng/ml the above medium) for M1 polarization and IL-4 (100 ng/mL) for M2 polarization were added to the dishes, respectively. After 24 h, the M1 and M2 polarized macrophages were ready for the following experiments.

For series [3], the system named is CD206+ macrophages. Nature of the series: MR imaging in mouse model of cutaneous wound healing. Format: in vivo. The protocol:
Eight-to nine-week-old C57BL/6J female mice were used for MRI of wound healing and glioma (Jackson Laboratory, ME). The generation of wound healing and glioma is described in Examples 14 and 15, respectively. The mice with subcutaneous wounds were imaged on days 1, 4, and 7 longitudinally or on day 7. Mice with glioma were imaged on the third week. All the mice were imaged pre- and at 0, 15, 30, 45 and 60 min after 0.3 mmol/kg of Mann2-DTPA-Gd or MannGdFish was administered intravenously via a tail vein using serial T1 rapid acquisition with relaxation enhancement (RARE) sequence (TR: 935.77 ms, TE: 13.59 ms, averages: 12, rare factor: 4, 256×256×48 matrix size, 0.156×0.156×1 mm^3 voxel size) with chemical fat suppression using a Hermitian pulse shape with an 8.253 ms pulse and 701.19 Hz bandwidth 3.5 ppm down from the water peak and respiratory gating on a 4.7 T small animal MR scanner (Bruker, Cambridge, MA) with a 3 cm quadrature volume coil (Rapid MR International, Germany). Regions of interest (ROIs) were drawn and the contrast-to-noise ratios (CNRs, CNRpre-contrast subtracted) were calculated by a radiologist with over 20 years of experience blinded to the identity of the imaging agent used and the strain of the mice (n=3 per group).
Wound healing procedure. Seven-to ten-week-old C57BL/6J female mice (The Jackson Laboratories, ME) and mannose-receptor deficient mice were used in this study. A circular outline on the back of a mouse was made with a 4 mm biopsy punch (Kai Medical, Japan) under anesthesia using isoflurane. Then a full-thickness excisional wound was generated that extended through the subcutaneous tissue. A silicone splint was glued over the wound, anchored with 6-0 nylon sutures, and covered with a transparent occlusive dressing (OpSite). Xylazine/norepinephrine (100 μL) were intraperitoneally injected twice a day for two days and the mice were monitored daily.

The subject of a further series is CD206+ TAMs. Description: MR imaging of experimental glioma. Particulars: third week, 30 and 60 min post-injection. Format: in vivo, mouse. The procedure:
Eight-to nine-week-old C57BL/6J female mice were used for MRI of wound healing and glioma (Jackson Laboratory, ME). The generation of wound healing and glioma is described in Examples 14 and 15, respectively. The mice with subcutaneous wounds were imaged on days 1, 4, and 7 longitudinally or on day 7. Mice with glioma were imaged on the third week. […] Regions of interest (ROIs) were drawn and the contrast-to-noise ratios (CNRs, CNRpre-contrast subtracted) were calculated by a radiologist with over 20 years of experience blinded to the identity of the imaging agent used and the strain of the mice (n=3 per group). […]
Eight- to nine-week-old C57BL/6J female mice were used in this experiment (Jackson laboratory, ME). […] The mice then were monitored daily for signs of discomfort or neurological symptoms.

The subject of series [4] is CD206+ macrophages. Description: MR imaging in mouse model of cutaneous wound healing. Format: in vivo. Particulars: 45-75 min post-injection, wildtype mice.

Entries after “also recorded” stand apart in the source; their conditions may differ. Where two headings read alike, the source gives them in different places.

As for `O=C([O-])CN(CCN(CC(=O)[O-])CC(=O)NC1C(O)OC(CO)C(O)C1O)CCN(CC(=O)[O-])CC(=O)NC1C(O)OC(CO)C(O)C1O.[Gd+3]` (stereo not drawn) [Mann2-DTPA-Gd], the “relaxivity (r1)” value in series [1] was determined as 3.6 mmol⁻¹ s⁻¹; in series [1] (in PBS, 0.47 T, 40° C.) it was 3.6 mM⁻¹ s⁻¹. In series [2], the “amount of gadolinium on M2 macrophages versus M1 macrophages and HEK293 cells” value was “much higher than that on M1 macrophages and HEK293 cells; also recorded: markedly higher than that in M1 macrophages and HEK293 cells”. In addition, the “CNR on day 7 compared to day 4” value in the series with CD206+ macrophages [3] (45 min post-injection, wildtype mouse) is “about two-fold”; in the series with CD206+ macrophages [4] it was 2- to 3 fold. The “CNR on day 7 versus days 1 and 4” value with CD206+ macrophages [3] (60 min post-injection, longitudinal imaging) was “much higher compared to that on days 1 and 4”. Further, the “signal intensity / CNR time course” value in the series with CD206+ macrophages [3] (mannose receptor-knockout mice, day 7, 0.3 mmol/kg) was “decreased significantly after 15 min post-injection compared to that in wildtype mice; also recorded: decreased over time after initially peaking at 15 min post-injection”. Further, the “contrast-to-noise ratio (CNR) time course” value in the series with CD206+ macrophages [3] (wildtype mice, day 7 after wound induction) was “increasing over time until 45 min post-injection prior to slowly decreasing; also recorded: slow decrease of CNR”. The “contrast enhancement of glioma” value with CD206+ TAMs is “Substantial contrast enhancement”.
